Key:
E. coli DNA gyrase = E. coli DNA gyrase (Escherichia coli, UniProt P0AES4); test: E. coli gyrase DNA cleavage assay; type: biochemical; set-up: key to Gyrase inhibition strong+ / weak −: + strong inhibition; − weak inhibition in comparison to compound 16; settings: for Gyrase inhibition strong+ / weak −: qualitative DNA cleavage assay at 1 μM and 10 μM, in comparison to compound 16; for CC50: E. coli gyrase DNA cleavage, read-out: CC50 (concentration at half-maximum cleavage)
Protocol: The target activity of the synthesized derivatives was investigated using a DNA cleavage assay with purified and enzymatically active E. coli DNA gyrase[8] (see SI). In this assay, albicidin‐stabilized complexes of gyrase and plasmid DNA are trapped, and subsequently denatured and deproteinated to reveal DNA linearized by gyrase. […] For the best performing compounds, which were able to fully stabilize the cleavage complex at a concentration of 1 μM, the concentrations at half‐maximum cleavage (CC50) were determined (Figure 3).
1.2 Escherichia coli Gyrase Cleavage Inhibition Assay
E. coli gyrase cleavage assays were executed by setting up a master mix including 0.25 µg relaxed plasmid (pBR322) in 35 mM Tris-HCl (pH 7.5), 24 mM KCl, 4 mM MgCl2, 2 mM dithithreitol (DTT), 1.8 mM spermidine, 1 mM ATP, 6.5% (wt/vol) glycerol and 0.1 mg/ml bovine serum albumin per reaction.
Of this stock solution, 13.2 µL was aliquoted for each reaction into 1.5 mL Eppendorf tubes and supplemented with 0.3 µL of the appropriate compound dilution or DMSO with a […] DMSO concentration of 2% per reaction. The reactions were started with 1.5 µL of 50 nM (pre-screening) or 40 nM (IC50 determinations) wt E. coli gyrase in dilution buffer (50 mM Tris-HCl (pH 7.5), 100 mM KCl, 2 mM DTT, 1 mM EDTA, and 50% (wt/vol) glycerol) for a […] volume of 15 µL. Reactions were incubated at 37°C for 30 minutes before addition of 1.5 µL 0.2% (wt/vol) SDS and 0.75 µL proteinase K (0.2 mg/mL) and further incubation at 37°C for 30 minutes to trap cleavage complexes. Reactions were stopped with 15 µL chloroform:isoamyl alcohol (24: 1 v/v) and 15 µL of STEB (40% (wt/vol) sucrose, […] Tris-Cl pH 8, 10 mM EDTA, 0.5 mg/mL bromophenol blue). After brief vortexing and centrifugation at 2,300g for 5 min, 15 µL of the aqueous phase was loaded onto 1% (wt/vol) agarose in TAE (Tris-acetate […] and EDTA […]) gels supplemented with 10 µg/mL ethidium bromide.
The gels were run at 85 V for 2 hours.
DNA was visualized (602/50, UV Trans, auto optimal exposure) with a ChemiDoc MP (Bio-Rad Laboratories Inc., equipped with ImageLab Touch Software v2.0.0.27) and the percentage of cleaved DNA relative to the total amount of DNA per lane was determined with ImageJ software.[2] IC50 curves were generated in GraphPad Prism (v10.0.0) using the non-linear regression curve fit variable slope with four parameters and least squares regression.

E. coli DSM 1116 = test: Qualitative growth inhibition assay in presence of AlbAS; type: cell-based, Escherichia coli; settings: for GIA: E. coli inhibition +AlbA: E. coli DSM 1116, 10 µM compound with equimolar AlbAS; for bioactivity in presence of AlbAS (in words): E. coli, equimolar purified AlbAS
Protocol: Finally, we investigated if synthetic variations of building block A are able to evade the effects of the resistance protein AlbA. Therefore, we carried out a qualitative growth inhibition assay with derivatives 4–24 in presence of an equimolar amount of purified AlbAS. After incubation of the cultures overnight, the growth of the bacteria was evaluated. The ability of AlbAS to sufficiently sequester an albicidin derivative from the supernatant allowed E. coli cells to accumulate in a visible cell pellet. Second, we performed a quantitative transcription‐activation reporter assay[22] to assess transcriptional regulation by AlbAL. The promoter sequence pAlbA was inserted into a reporter vector that encodes the ilux luminescence cassette.[22] The luminescence signals elicited by ligand binding of synthetic variations to AlbAL was compared and normalized to the signal induced by 2nd Gen albicidin 2 and are hereby referred to as relative transcription activation (TA^%). The combination of both assays prompted us to categorize the experimental outcomes (Figure 4) in four groups:
Figure 4 Characterization of AlbA resistance against derivatives 2, 4–24. GIA: Qualitative growth inhibition assay against E. coli DSM 1116. (−): Derivative unable to inhibit the growth of E. coli in presence of AlbAS. (+): Derivative inhibits growth of E. coli in presence of AlbAS. […] For details see SI Figure 9. Transcription activation (TA) assay: luminescence elicited by 2nd Gen albicidin 2 from the TA assay was normalized to 100 % and the luminescence signal of tested derivatives provided: relative luminescence [%]=luminescence [derivative]/luminescence [2]×100 %. Green bars indicate low relative luminescence (<40 %) and red bars indicate high relative luminescence (>50 %). Error bars show the standard deviations of triplicate measurements. TEXT PRINTED IN THE PICTURE: 2: E. coli inhibition +AlbA: − | 4: E. coli inhibition +AlbA: + | 9: E. coli inhibition +AlbA: + | 11: E. coli inhibition +AlbA: + | 12: E. coli inhibition +AlbA: + | 13: E. coli inhibition +AlbA: ~ | 14: E. coli inhibition +AlbA: − | 16: E. coli inhibition +AlbA: − | 17: E. coli inhibition +AlbA: − | 18: E. coli inhibition +AlbA: − | 19: E. coli inhibition +AlbA: − | 20: E. coli inhibition +AlbA: + | 21: E. coli inhibition +AlbA: − | 22: E. coli inhibition +AlbA: − | 23: E. coli inhibition +AlbA: − | 24: E. coli inhibition +AlbA: − […]
1.3 Resistance assessment against AlbA
E. coli strain DSM 1116 was used for all susceptibility testing. E. coli BL21 Star (DE3) cells (Invitrogen) were used for protein expression. LB medium (Lysogeny broth: 10 g/L peptone, 5 g/L yeast extract, 5 g/L NaCl) was used as broth or in agar plates for all experiments. Incubation steps took place at 37°C and 180 rpm shaking if not stated otherwise. Throughout the study, 2nd Gen albicidin 2 was used as albicidin standard due to its better stability, availability and similar activity compared to natural albicidin in presence of resistance factors.[3,4]
AlbA expression and purification
N-terminally His-tagged AlbA was expressed using a pET28a vector as described previously.[5] In brief, E. coli BL21(DE3) cells were transformed with pET28-AlbA plasmid and grown in LB medium with kanamycin. LB broth supplemented with 50 µg/mL kanamycin was inoculated from over-night cultures and grown at 37°C until an OD600 of 0.6 was reached. After induction with 0.2 mM isopropyl β-D-1-thiogalactopyranoside (IPTG) the proteins were expressed at 18°C for 20 h. The cells were harvested by centrifugation (4,000 x G, 20 min), resuspended in lysis buffer (50 mM Tris, pH 8.0, 500 mM NaCl, 10% glycerol) and processed in a cell disruptor (Constant Systems Ltd) at 25 kPsi before centrifugation at 50,000 x G, at 4°C for 45 min. The lysate was incubated with Pure Cube Ni-NTA agarose (Cube Biotech, Germany) at 4°C for 20 min while shaking. The slurry was transferred to empty gravity-flow […]

Sequence of E. coli DNA gyrase (P0AES4 whole entry): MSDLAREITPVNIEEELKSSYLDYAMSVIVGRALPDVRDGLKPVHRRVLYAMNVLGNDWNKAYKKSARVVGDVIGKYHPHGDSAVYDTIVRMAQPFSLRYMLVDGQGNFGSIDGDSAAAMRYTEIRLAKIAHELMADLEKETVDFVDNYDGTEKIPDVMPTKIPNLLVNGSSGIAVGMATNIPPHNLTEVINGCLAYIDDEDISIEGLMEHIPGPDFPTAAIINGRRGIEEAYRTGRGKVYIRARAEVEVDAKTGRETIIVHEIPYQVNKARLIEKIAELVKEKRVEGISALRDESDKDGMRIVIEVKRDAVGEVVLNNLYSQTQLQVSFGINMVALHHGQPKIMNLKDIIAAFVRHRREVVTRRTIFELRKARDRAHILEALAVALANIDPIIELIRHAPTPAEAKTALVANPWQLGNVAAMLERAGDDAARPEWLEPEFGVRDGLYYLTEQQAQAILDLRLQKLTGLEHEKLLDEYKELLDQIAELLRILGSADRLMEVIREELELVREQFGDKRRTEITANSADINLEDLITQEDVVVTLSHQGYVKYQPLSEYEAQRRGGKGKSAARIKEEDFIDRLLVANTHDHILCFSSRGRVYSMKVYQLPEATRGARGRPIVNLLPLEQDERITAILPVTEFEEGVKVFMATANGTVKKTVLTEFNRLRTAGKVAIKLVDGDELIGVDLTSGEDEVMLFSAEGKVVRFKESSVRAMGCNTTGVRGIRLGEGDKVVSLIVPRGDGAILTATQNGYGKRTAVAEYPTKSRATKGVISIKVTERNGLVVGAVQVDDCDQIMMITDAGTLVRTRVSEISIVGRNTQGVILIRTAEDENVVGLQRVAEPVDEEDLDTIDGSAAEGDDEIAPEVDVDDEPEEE

SMILES	Gyrase inhibition strong+ / weak − (E. coli DNA gyrase)	GIA: E. coli inhibition +AlbA (E. coli DSM 1116)	bioactivity in presence of AlbAS (in words) (E. coli DSM 1116)	CC50 (E. coli DNA gyrase)
COc1c(NC(=O)c2ccc(NC(=O)c3ccc(NC(=O)[C@H](Cc4c[nH]nn4)NC(=O)c4ccc(NC(=O)[C@@H](C)Oc5ccc(O)cc5)cc4)cn3)c(OC)c2O)ccc(C(=O)O)c1O [compound 9]	+	+	has bioactivity	
COc1c(NC(=O)c2ccc(NC(=O)c3ccc(NC(=O)[C@H](Cc4c[nH]nn4)NC(=O)c4ccc(NC(=O)c5ccc6nc(C)ccc6c5)cc4)cn3)c(OC)c2O)ccc(C(=O)O)c1O [compound 16]	+	−	deactivated	
CCn1cc(C(=O)Nc2ccc(C(=O)N[C@@H](Cc3c[nH]nn3)C(=O)Nc3ccc(C(=O)Nc4ccc(C(=O)Nc5ccc(C(=O)O)c(O)c5OC)c(O)c4OC)nc3)cc2)c(=O)c2ccc(C)nc21 [compound 18]	−	−	deactivated	
COc1c(NC(=O)c2ccc(NC(=O)c3ccc(NC(=O)[C@H](Cc4c[nH]nn4)NC(=O)c4ccc(NC(=O)c5ccc(C#N)cc5)cc4)cn3)c(OC)c2O)ccc(C(=O)O)c1O [compound 4]	+	+	has bioactivity	12 nM
COc1c(NC(=O)c2ccc(NC(=O)c3ccc(NC(=O)[C@H](Cc4c[nH]nn4)NC(=O)c4ccc(NC(=O)c5cc(=O)c6cc(F)ccc6o5)cc4)cn3)c(OC)c2O)ccc(C(=O)O)c1O [compound 20]	+	+	highly bioactive	
COc1c(NC(=O)c2ccc(NC(=O)c3ccc(NC(=O)[C@H](Cc4c[nH]nn4)NC(=O)c4ccc(NC(=O)c5ccc6nc[nH]c6c5)cc4)cn3)c(OC)c2O)ccc(C(=O)O)c1O [compound 23]	+	−	deactivated	
COc1c(NC(=O)c2ccc(NC(=O)c3ccc(NC(=O)[C@H](Cc4c[nH]nn4)NC(=O)c4ccc(NC(=O)c5c[nH]c6ccccc6c5=O)cc4)cn3)c(OC)c2O)ccc(C(=O)O)c1O [compound 17]	+	−	deactivated	
COc1c(NC(=O)c2ccc(NC(=O)c3ccc(NC(=O)[C@H](Cc4c[nH]nn4)NC(=O)c4ccc(NC(=O)c5ccc6ncsc6c5)cc4)cn3)c(OC)c2O)ccc(C(=O)O)c1O [compound 22]	+	−	deactivated	43 nM
COc1c(NC(=O)c2ccc(NC(=O)c3ccc(NC(=O)[C@H](Cc4c[nH]nn4)NC(=O)c4ccc(NC(=O)c5ccc6ncccc6c5)cc4)cn3)c(OC)c2O)ccc(C(=O)O)c1O [compound 14]	+	−	deactivated	
COc1c(NC(=O)c2ccc(NC(=O)c3ccc(NC(=O)[C@H](Cc4c[nH]nn4)NC(=O)c4ccc(NC(=O)c5ccc6nn[nH]c6c5)cc4)cn3)c(OC)c2O)ccc(C(=O)O)c1O [compound 24]	+	−	deactivated	
CCn1cc(C(=O)Nc2ccc(C(=O)N[C@@H](Cc3c[nH]nn3)C(=O)Nc3ccc(C(=O)Nc4ccc(C(=O)Nc5ccc(C(=O)O)c(O)c5OC)c(O)c4OC)nc3)cc2)c(=O)c2cc3c(cc21)OCO3 [compound 19]	−	−	deactivated	
COc1c(NC(=O)c2ccc(NC(=O)c3ccc(NC(=O)[C@H](Cc4c[nH]nn4)NC(=O)c4ccc(NC(=O)c5cc6cc(O)ccc6[nH]5)cc4)cn3)c(OC)c2O)ccc(C(=O)O)c1O [compound 21]	+	−	deactivated	
COc1c(NC(=O)c2ccc(NC(=O)c3ccc(NC(=O)[C@H](Cc4c[nH]nn4)NC(=O)c4ccc(NC(=O)c5cnc6ccccc6c5)cc4)cn3)c(OC)c2O)ccc(C(=O)O)c1O [compound 13]	+		has bioactivity	
COc1c(NC(=O)c2ccc(NC(=O)c3ccc(NC(=O)[C@H](Cc4c[nH]nn4)NC(=O)c4ccc(NC(=O)c5cc6ccccc6cn5)cc4)cn3)c(OC)c2O)ccc(C(=O)O)c1O [compound 12]	+	+	highly bioactive	
